# From patent US9932320B2 (BRISTOL-MYERS SQUIBB COMPANY, priority 2014, dated 2018)
# Target: T1, AAK1 (GST-Xa-hAAK1) (Homo sapiens, UniProt Q2M2I8)
# T1 construct: made in house
# Experiment: AAK1 Kinase Assay (Caliper LabChip, fluoresceinated peptide substrate)
# Format: biochemical
# Conditions: AAK1 functional potency; class symbols; read-out: IC50 (nM), functional potency as IC50 ranges
# Procedure: The assays were performed in U-bottom 384-well plates. The final assay volume was 30 μl prepared from 15 μl additions of enzyme and substrates (fluoresceinated peptide (5-FAM)-Aha-KEEQSQITSQVTGQIGWR-NH2 and ATP) and test compounds in assay buffer (10 mM Tris-HCL pH 7.4, 10 mM MgCl2, 0.01% Tween-20 and 1.0 mM DTT). The reactions were initiated by the combination of bacterially expressed, GST-Xa-hAAK1 with substrates and test compounds. The reactions were incubated at room temperature for 3 hours and terminated by adding 60 μl of 35 mM EDTA buffer to each sample. The reactions were analyzed on the Caliper LabChip 3000 (Caliper, Hopkinton, Mass.) by electrophoretic separation of the fluorescent substrate and phosphorylated product. Inhibition data were calculated by comparison to EDTA quenched control reactions for 100% inhibition and vehicle-only reactions for 0% inhibition. The final concentration of reagents in the assays are ATP, 22 μM; (5-FAM)-Aha-KEEQSQITSQVTGQIGWR-NH2, 1.5 μM; GST-Xa-hAAK1, 3.5 nM; and DMSO, 1.6%. Dose response curves were generated to determine the concentration required inhibiting 50% of kinase activity (IC50). Compounds were dissolved at 10 mM in dimethylsulfoxide (DMSO) and evaluated at eleven concentrations. IC50 values were derived by non-linear regression analysis.
# T1 sequence (Q2M2I8 whole entry): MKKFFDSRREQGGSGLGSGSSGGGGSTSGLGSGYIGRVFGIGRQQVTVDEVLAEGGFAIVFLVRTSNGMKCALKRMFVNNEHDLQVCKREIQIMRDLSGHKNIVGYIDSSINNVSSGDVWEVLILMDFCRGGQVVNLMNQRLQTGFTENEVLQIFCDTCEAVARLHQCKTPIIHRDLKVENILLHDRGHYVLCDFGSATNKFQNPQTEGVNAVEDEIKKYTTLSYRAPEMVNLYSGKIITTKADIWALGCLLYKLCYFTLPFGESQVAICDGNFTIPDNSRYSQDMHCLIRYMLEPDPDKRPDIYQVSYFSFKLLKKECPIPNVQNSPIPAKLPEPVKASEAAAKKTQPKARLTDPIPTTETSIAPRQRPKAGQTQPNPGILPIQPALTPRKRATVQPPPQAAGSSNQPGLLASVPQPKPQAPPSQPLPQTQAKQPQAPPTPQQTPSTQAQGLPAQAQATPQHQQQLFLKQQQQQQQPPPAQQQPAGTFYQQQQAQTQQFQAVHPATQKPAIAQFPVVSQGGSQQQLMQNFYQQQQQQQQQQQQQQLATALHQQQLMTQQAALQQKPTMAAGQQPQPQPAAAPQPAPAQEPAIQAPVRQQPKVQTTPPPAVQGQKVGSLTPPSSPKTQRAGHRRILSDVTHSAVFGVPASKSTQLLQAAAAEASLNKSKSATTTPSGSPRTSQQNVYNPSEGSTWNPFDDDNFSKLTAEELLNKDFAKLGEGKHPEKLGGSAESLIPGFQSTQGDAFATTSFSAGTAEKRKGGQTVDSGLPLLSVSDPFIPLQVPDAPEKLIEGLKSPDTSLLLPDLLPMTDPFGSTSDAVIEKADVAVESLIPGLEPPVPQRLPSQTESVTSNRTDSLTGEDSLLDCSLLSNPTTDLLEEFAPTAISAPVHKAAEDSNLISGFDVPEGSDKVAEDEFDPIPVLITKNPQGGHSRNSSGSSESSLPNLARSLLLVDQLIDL
row,IC50 [nM],Structure (SMILES)
1,101 to 2500,"CC(C)CC(N)c1ccc2cc(-c3cc(N)nc4ccccc34)ccc2n1 (single isomer, unassigned) [Example 49, 2′-(1-amino-3-methylbutyl)-4,6′-biquinolin-2-amine]"
2,11 to 100,"CC(C)CCc1cc(C#N)c2cc(-c3ccncc3)ccc2n1 [Example 6, 2-Isopentyl-6-(pyridin-4-yl)quinoline-4-carbonitrile]"
3,11 to 100,"COc1cc2nc(CCC(C)C)cc(O)c2cc1-c1cnco1 [Example 9, 2-Isopentyl-7-methoxy-6-(oxazol-5-yl)quinolin-4-ol]"
4,11 to 100,"CC(C)CC(N)c1ccc2cc(-c3ccnc(NC4CC4)c3)ccc2n1 (stereo not drawn) [Example 38, 4-(2-(1-amino-3-methylbutyl)quinolin-6-yl)-N-cyclopropylpyridin-2-amine]"
5,11 to 100,"CC(C)CCc1nc2ccc(-c3ccncc3)cc2c(O)c1Br [Example 16, 3-Bromo-2-isopentyl-6-(pyridin-4-yl)quinolin-4-ol]"
6,101 to 2500,"CC(C)CCc1ccc2cc(-c3ccncc3)ccc2n1 [Example 4, 2-Isopentyl-6-(pyridin-4-yl)quinoline]"
7,11 to 100,"CC(C)CCc1cc(O)c2cc(-c3ccncc3)ccc2n1 [Example 1, 2-Isopentyl-6-(pyridin-4-yl)quinolin-4-ol]"
8,101 to 2500,"Cc1nc2ccc(-c3ccncc3)cc2c(O)c1CC(C)C [Example 14, 3-Isobutyl-2-methyl-6-(pyridin-4-yl)quinolin-4-ol]"
9,101 to 2500,"CC(C)CCc1nc2ccc(-c3ccncc3)cc2cc1C#N [Example 18, 2-Isopentyl-6-(pyridin-4-yl)quinoline-3-carbonitrile]"
10,11 to 100,"CC(C)CCc1cc(=S)c2cc(-c3ccncc3)ccc2[nH]1 [Example 31, 2-isopentyl-6-(pyridin-4-yl)quinoline-4(1H)-thione]"
11,11 to 100,"CC(C)CC(N)c1ccc2cc(-c3ccncc3)ccc2n1 (single isomer, unassigned; (-)) [Example 20, (−)-3-methyl-1-(6-(pyridin-4-yl)quinolin-2-yl)butan-1-amine]"
12,11 to 100,"CC(C)CCc1cc(N(C)C)c2cc(-c3ccncc3)ccc2n1 [Example 5, 2-Isopentyl-N,N-dimethyl-6-(pyridin-4-yl)quinolin-4-amine]"
13,1 to 10,"CC(C)CC(N)c1cc(-c2nnn[nH]2)c2cc(-c3ccncc3)ccc2n1 (stereo not drawn) [Example 37, 3-methyl-1-(6-(pyridin-4-yl)-4-(1H-tetrazol-5-yl)quinolin-2-yl)butan-1-amine]"
14,11 to 100,"CC(=O)Nc1cc(-c2ccc3nc(C(O)CC(C)C)ccc3c2)ccn1 (stereo not drawn) [Example 45, N-(4-(2-(1-hydroxy-3-methylbutyl)quinolin-6-yl)pyridin-2-yl)acetamide]"
15,1 to 10,"CC(=O)Nc1cc(-c2ccc3nc(C(N)CC(C)C)ccc3c2)ccn1 (single isomer, unassigned) [Example 34, N-(4-(2-(1-amino-3-methylbutyl)quinolin-6-yl)pyridin-2-yl)acetamide]"
16,1 to 10,"CC(C)C[C@H](N)c1cc(C#N)c2cc(-c3ccncc3)ccc2n1 (single isomer, unassigned) [Example 8]"
17,101 to 2500,"NC(=O)c1cc(C(N)C2CCCCC2)nc2ccc(-c3ccncc3)cc12 (single isomer, unassigned) [Example 40, 2-(amino(cyclohexyl)methyl)-6-(pyridin-4-yl)quinoline-4-carboxamide]"
18,11 to 100,"COc1cc2nc(CCC(C)C)cc(C#N)c2cc1-c1cnco1 [Example 11, 2-Isopentyl-7-methoxy-6-(oxazol-5-yl)quinoline-4-carbonitrile]"
19,101 to 2500,"CC(C)CC(N)c1ccc2cc(-c3ccc4cnccc4c3)ccc2n1 (stereo not drawn) [Example 27, 1-(6-(isoquinolin-6-yl)quinolin-2-yl)-3-methylbutan-1-amine]"
20,101 to 2500,"CC(C)Cc1cnc2ccc(-c3ccncc3)cc2c1O [Example 15, 3-Isobutyl-6-(pyridin-4-yl)quinolin-4-ol]"
21,101 to 2500,"CC(C)CC(N)c1ccc2cc(-c3ccnc(C4CC4)c3)ccc2n1 (stereo not drawn) [Example 50, 1-(6-(2-cyclopropylpyridin-4-yl)quinolin-2-yl)-3-methylbutan-1-amine]"

row,IC50 [nM],Structure (SMILES)
1,101 to 2500,"CC(C)CCc1nc2ccc(-c3ccncc3)cc2cc1C(N)=O [Example 17, 2-Isopentyl-6-(pyridin-4-yl)quinoline-3-carboxamide]"
2,11 to 100,"COc1cc2nc(CCC(C)C)cc(Br)c2cc1-c1cnco1 [Example 10, 5-(4-Bromo-2-isopentyl-7-methoxyquinolin-6-yl)oxazole]"
3,101 to 2500,"CC(=O)Nc1cc(-c2ccc3nc(C(N)CC(C)C)ccc3c2)c2ccccc2n1 (single isomer, unassigned) [Example 46, N-(2′-(1-amino-3-methylbutyl)-4,6′-biquinolin-2-yl)acetamide]"
4,11 to 100,"CC(C)CC(N)c1ccc2cc(-c3ccnc(N(C)C)n3)ccc2n1 (stereo not drawn) [Example 28, 4-(2-(1-amino-3-methylbutyl)quinolin-6-yl)-N,N-dimethylpyrimidin-2-amine]"
5,11 to 100,"CC(C)CC(N)c1ccc2cc(-c3ccnc(NC(=O)c4ccc(C(F)(F)F)cc4)c3)ccc2n1 (stereo not drawn) [Example 42, N-(4-(2-(1-amino-3-methylbutyl)quinolin-6-yl)pyridin-2-yl)-4-(trifluoromethyl)benzamide]"
6,11 to 100,"CCc1cc(C(N)CC(C)C)nc2ccc(-c3ccncc3)cc12 (racemic) [Example 43, 1-(4-ethyl-6-(pyridin-4-yl)quinolin-2-yl)-3-methylbutan-1-amine]"
7,101 to 2500,"CC(C)CC(N)c1ccc2cc(-c3cc(N)nc4ccccc34)ccc2n1 (single isomer, unassigned) [Example 48, 2′-(1-amino-3-methylbutyl)-4,6′-biquinolin-2-amine]"
8,1 to 10,"CC(C)CC(N)c1ccc2cc(-c3ccnc4[nH]ccc34)ccc2n1 (stereo not drawn) [Example 25, 1-(6-(1H-pyrrolo[2,3-b]pyridin-4-yl)quinolin-2-yl)-3-methylbutan-1-amine]"
9,101 to 2500,"COc1cnccc1-c1ccc2nc(C(N)CC(C)C)ccc2c1 (single isomer, unassigned; (-)) [Example 23, (−)-1-(6-(3-methoxypyridin-4-yl)quinolin-2-yl)-3-methylbutan-1-amine]"
10,101 to 2500,"CC(C)CC(OCC(F)(F)F)c1ccc2cc(-c3ccncc3)ccc2n1 (stereo not drawn) [Example 32, 2-(3-methyl-1-(2,2,2-trifluoroethoxy)butyl)-6-(pyridin-4-yl)quinoline]"
11,11 to 100,"COc1cc2nc(C(N)CC(C)C)cc(C#N)c2cc1-c1cnco1 (single isomer, unassigned; (-)) [Example 12, (−)-2-(1-Amino-3-methylbutyl)-7-methoxy-6-(oxazol-5-yl)quinoline-4-carbonitrile]"
12,11 to 100,"CC(C)CCc1cc(Br)c2cc(-c3ccncc3)ccc2n1 [Example 3, 4-Bromo-2-isopentyl-6-(pyridin-4-yl)quinoline]"
13,101 to 2500,"COc1cc(CCC(C)C)nc2ccc(-c3ccncc3)cc12 [Example 2, 2-Isopentyl-4-methoxy-6-(pyridin-4-yl)quinoline]"
14,1 to 10,CC(=O)Nc1cc(-c2ccc3nc(C(N)C4CCCCC4)ccc3c2)ccn1 (stereo not drawn) [Example 36]
15,1 to 10,"CC(C)CC(N)c1ccc2cc(-c3ccnc(N)c3)ccc2n1 (stereo not drawn) [Example 29, 4-(2-(1-amino-3-methylbutyl)quinolin-6-yl)pyridin-2-amine]"
16,101 to 2500,COc1cc(-c2ccc3nc(C(N)CC(C)C)ccc3c2)ccn1 (stereo not drawn) [Example 24]
17,1 to 10,"CC(=O)Nc1cc(-c2ccc3nc(C(N)CC(C)C)ccc3c2)ccn1 (single isomer, unassigned) [Example 33, N-(4-(2-(1-amino-3-methylbutyl)quinolin-6-yl)pyridin-2-yl)acetamide]"
18,11 to 100,"CC(C)CC(N)c1ccc2cc(-c3ccncc3)ccc2n1 (single isomer, unassigned; (+)) [Example 21, (+)-3-methyl-1-(6-(pyridin-4-yl)quinolin-2-yl)butan-1-amine]"
19,101 to 2500,"N#Cc1cc(C(N)C2CCCCC2)nc2ccc(-c3ccncc3)cc12 (stereo not drawn) [Example 41, 2-(amino(cyclohexyl)methyl)-6-(pyridin-4-yl)quinoline-4-carbonitrile]"
20,101 to 2500,"CC(C)CC(=O)c1ccc2cc(-c3ccncc3)ccc2n1 [Example 19, 3-methyl-1-(6-(pyridin-4-yl)quinolin-2-yl)butan-1-one]"

# Same assay, conditions: AAK1 functional potency; numeric values; read-out: IC50 (nM), functional potency
row,IC50 [nM],Structure (SMILES)
1,1200,"CC(=O)Nc1cc(-c2ccc3nc(C(N)CC(C)C)ccc3c2)c2ccccc2n1 (single isomer, unassigned) [Example 47, N-(2′-(1-amino-3-methylbutyl)-4,6′-biquinolin-2-yl)acetamide]"
2,12,"CC(C)C[C@@H](N)c1cc(C#N)c2cc(-c3ccncc3)ccc2n1 (single isomer, unassigned) [Example 7]"
3,4.1,"COc1cc2nc(C(N)CC(C)C)cc(C#N)c2cc1-c1cnco1 (single isomer, unassigned; (+)) [Example 13, (+)-2-(1-Amino-3-methylbutyl)-7-methoxy-6-(oxazol-5-yl)quinoline-4-carbonitrile]"
4,54,"NC(=O)c1cc(C(N)C2CCCCC2)nc2ccc(-c3ccncc3)cc12 (single isomer, unassigned) [Example 39, 2-(amino(cyclohexyl)methyl)-6-(pyridin-4-yl)quinoline-4-carboxamide]"
